Columns and labels:
[1] = Highest frequency of moderate liver toxicity observed during clinical trials, expressed as a percentage. [column '% BIOL' in source]; conditions: human
[2] = Highest frequency of acute liver toxicity observed during clinical trials, expressed as a percentage. [column '% AIGUE' in source]; conditions: human
[3] = Times to onset, minimal and maximal, observed in the indexed observations. [column 'DELAI' in source]; conditions: human
[4] = human, serum
[5] = human, serum; remark: listed apart in the source
[6] = human
[7] = human; remark: listed apart in the source
[8] = human; remark: listed apart in the source
[9] = human, serum, 4383 h
[10] = human; remark: listed apart in the source
[11] = human; remark: listed apart in the source
[12] = human; remark: listed apart in the source
[13] = human; remark: listed apart in the source
[14] = human; remark: listed apart in the source
[15] = human; remark: listed apart in the source
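Throughout, for Hepatotoxicity (association with vascular disease): count of indexed literature references reporting vascular liver injury in humans, e.g. peliosis hepatitis, hepatic veno-occlusive disease or Budd-Chiari syndrome.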
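Throughout, for Hepatotoxicity (benign tumour): value is a count of indexed literature references citing a benign tumour confirmed by histopathology.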
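Throughout, for Hepatotoxicity (choleostasis): human cholestatic liver injury, shown by histopathology or by peak ALT or AST elevation over alkaline phosphatase ratio below 2, value counts indexed literature reports.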
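Throughout, for Hepatotoxicity (chronic liver disease): chronic liver injury confirmed by histopathology or persistently raised serum aminotransferase activity beyond 6 months, value given as the count of indexed literature references.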
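Throughout, for Hepatotoxicity (cirrhosis): value is a count of indexed literature references reporting cirrhosis confirmed by histopathology.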
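Throughout, for Hepatotoxicity (cytolytic): human cytolytic liver injury, shown by histopathology or by a ratio above 5 of peak ALT or AST elevation to alkaline phosphatase elevation, value counts indexed references.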
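Throughout, for Hepatotoxicity (granulomatous hepatitis): value is a count of indexed literature references reporting granulomatous liver disease confirmed by histopathology.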
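Throughout, for Hepatotoxicity (malignant tumour): malignant tumour confirmed by histopathology, value gives the count of indexed literature references reporting it.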
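Throughout, for Hepatotoxicity (severe hepatitis): human clinical data: severe hepatitis, meaning potentially life-threatening liver failure or clinically observed cases, the value counts how many indexed literature references report it.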
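Throughout, for Hepatotoxicity (steatosis): steatosis confirmed by histopathology, value is the count of indexed references.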

| Compound | Hepatotoxicity (moderate) [1] [%] | Hepatotoxicity (acute) [2] [%] | Hepatotoxicity (time to onset) [3] | Hepatotoxicity (moderate) [4] | Hepatotoxicity (acute) [5] | Hepatotoxicity (cytolytic) [6] | Hepatotoxicity (choleostasis) [7] | Hepatotoxicity (severe hepatitis) [8] | Hepatotoxicity (chronic liver disease) [9] | Hepatotoxicity (cirrhosis) [10] | Hepatotoxicity (granulomatous hepatitis) [11] | Hepatotoxicity (association with vascular disease) [12] | Hepatotoxicity (steatosis) [13] | Hepatotoxicity (malignant tumour) [14] | Hepatotoxicity (benign tumour) [15] | further results |
| --- | --- | --- | --- | --- | --- | --- | --- | --- | --- | --- | --- | --- | --- | --- | --- | --- |
| O=C(O)CCNC(=O)c1ccc(/N=N/c2ccc(O)c(C(=O)O)c2)cc1 [BALSALAZIDE] | 0 | 0 | 8 days | 0 | 1 | 0 | 1 | 0 | 0 | 0 | 0 | 0 | 0 | 0 | 0 |  |
| O=C(O)Cc1cn(-c2ccccc2)nc1-c1ccc(Cl)cc1 [LONAZOLAC] | 0 | 1.3 | 1 month | 0 | 1 | 0 | 0 | 0 | 0 | 0 | 0 | 0 | 0 | 0 | 0 |  |
| CNCCON=c1c2ccccc2ccc2ccccc12 [DEMEXIPTILINE] | 0 | 0 | 6 weeks | 0 | 1 | 1 | 1 | 0 | 0 | 0 | 0 | 0 | 0 | 0 | 0 |  |
| Cc1c(-c2ccccc2)oc2c(C(=O)OCCN3CCCCC3)cccc2c1=O [FLAVOXATE] | 0 | 0 | 2.5 months | 0 | 1 | 1 | 0 | 0 | 0 | 0 | 0 | 0 | 0 | 0 | 0 |  |
| Clc1ccccc1C(c1ccccc1)(c1ccccc1)n1ccnc1 [CLOTRIMAZOLE] | 40 | 0 | 17 days | 8 | 0 | 0 | 0 | 0 | 0 | 0 | 0 | 0 | 0 | 0 | 0 |  |
| C=C1c2cccc(O)c2C(=O)C2=C(O)[C@]3(O)C(=O)C(C(N)=O)=C(O)[C@@H](N(C)C)[C@@H]3[C@@H](O)[C@H]12 [METHACYCLINE] | 0 | 0 | 7 months - 1 year | 0 | 1 | 1 | 0 | 0 | 0 | 0 | 0 | 0 | 0 | 0 | 0 |  |
| OCCOCCN1CCN(C2=Nc3ccccc3Sc3ccccc32)CC1 [QUETIAPINE] |  |  | 1 week - 3 weeks | 3 | 1 |  |  |  | 0 | 0 |  | 0 | 0 | 0 | 0 | Hepatotoxicity (moderate) ([1]; Liver): 14.8%; Hepatotoxicity (acute) ([2]; Liver): 1.9%; Hepatotoxicity (cytolytic) ([6]; Liver): 1; Hepatotoxicity (choleostasis) ([7]; Liver): 0; Hepatotoxicity (severe hepatitis) ([8]; Liver): 0; Hepatotoxicity (granulomatous hepatitis) ([11]; Liver): 0 |
| O=c1[nH]c2ccccc2n1CCCN1CCC(n2c(=O)[nH]c3cc(Cl)ccc32)CC1 [DOMPERIDONE] | 0 | 0 | < 1 week | 0 | 1 | 1 | 0 | 0 | 0 | 0 | 0 | 0 | 0 | 0 | 0 |  |
| CCN(CC)CCN1C(=O)CN=C(c2ccccc2F)c2cc(Cl)ccc21 [FLURAZEPAM] | 0 | 0 | 2 weeks - 6 months | 0 | 3 | 0 | 3 | 0 | 0 | 0 | 0 | 0 | 1 | 0 | 0 |  |
| CN(C)CCn1nnnc1SCC1=C(C(=O)O)N2C(=O)[C@@H](NC(=O)Cc3csc(N)n3)[C@H]2SC1 [CEFOTIAM] | 33 | 0.8 | 4 days | 8 | 1 | 0 | 0 | 0 | 0 | 0 | 0 | 0 | 0 | 0 | 0 |  |
| O=C(NCN1CCOCC1)c1cnccn1 [MORINAMIDE] | 1.8 | 0.5 | 4 months | 2 | 2 | 2 | 0 | 1 | 0 | 0 | 0 | 0 | 0 | 0 | 0 |  |
| CN[C@H](CC(C)C)C(=O)N[C@H]1C(=O)N[C@@H](CC(N)=O)C(=O)N[C@H]2C(=O)N[C@H]3C(=O)N[C@H](C(=O)N[C@H](C(=O)O)c4cc(O)cc(O)c4-c4cc3ccc4O)[C@H](O)c3ccc(c(Cl)c3)Oc3cc2cc(c3O[C@@H]2O[C@H](CO)[C@@H](O)[C@H](O)[C@H]2O[C@H]2C[C@](C)(N)[C@H](O)[C@H](C)O2)Oc2ccc(cc2Cl)[C@H]1O [VANCOMYCIN] | 50 | 0 | 4 days | 9 | 1 | 1 | 0 | 0 | 0 | 0 | 0 | 0 | 0 | 0 | 0 |  |
| CO/N=C(\C(=O)N[C@@H]1C(=O)N2C(C(=O)O)=C(COC(C)=O)CS[C@H]12)c1csc(N)n1 [CEFOTAXIME] | 33.3 | 3.3 | 3 days - 2 weeks | 33 | 4 | 1 | 2 | 0 | 0 | 0 | 0 | 0 | 0 | 0 | 0 |  |
| O=C(NCCN1CCOCC1)c1ccc(Cl)cc1 [MOCLOBEMIDE] | 0 | 0 | 1 week - 9 days | 1 | 1 | 0 | 1 | 1 | 0 | 0 | 0 | 0 | 0 | 0 | 0 |  |
